ChEMBL document CHEMBL4304767 (ACS Med Chem Lett, 2019)
pEC50: −log10 of the molar value. One block for each compound: values may come before it.

Legend:
[1] = molecular target: T1, Muscarinic acetylcholine receptor M4 (Homo sapiens, UniProt P08173); assay: (§1) Positive allosteric modulatory activity at human Muscarinic acetylcholine receptor M4 expressed in HEK cells co-expressing Glosensor construct assessed as as […] in acteylcholine-induced cAMP accumulation incubated for 7 mins in presence of isoproterenol/acetylcholine by Glosensor cAMP reagent/plate reader based luminescence assay; assay type: functional, cell-based
T1 sequence (P08173 whole entry): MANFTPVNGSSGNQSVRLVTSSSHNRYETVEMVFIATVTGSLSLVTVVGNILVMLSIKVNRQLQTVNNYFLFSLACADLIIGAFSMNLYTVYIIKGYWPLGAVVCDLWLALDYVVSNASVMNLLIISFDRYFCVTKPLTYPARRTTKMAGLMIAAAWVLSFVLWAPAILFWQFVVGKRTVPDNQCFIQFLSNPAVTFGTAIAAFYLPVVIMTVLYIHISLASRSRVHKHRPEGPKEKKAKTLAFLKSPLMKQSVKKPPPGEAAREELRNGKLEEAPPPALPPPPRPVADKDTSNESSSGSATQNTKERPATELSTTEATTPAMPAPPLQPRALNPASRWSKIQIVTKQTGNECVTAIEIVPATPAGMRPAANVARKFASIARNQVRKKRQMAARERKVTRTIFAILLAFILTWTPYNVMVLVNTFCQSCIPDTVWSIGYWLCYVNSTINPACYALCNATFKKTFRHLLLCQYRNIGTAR

[2] = molecular target: T1, Muscarinic acetylcholine receptor M4; assay: Agonist activity at human Muscarinic acetylcholine receptor M4 expressed in HEK cells co-expressing Glosensor construct assessed as decrease in isoproterenol-induced cAMP accumulation incubated for 7 mins in presence of isoproterenol by Glosensor cAMP reagent/plate reader based luminescence assay; assay type: functional, cell-based
[3] = molecular target: T2, Muscarinic acetylcholine receptor M2 (Homo sapiens, UniProt P08172); assay: (§2) Agonist activity at human Muscarinic acetylcholine receptor M2 expressed in HEK cells co-expressing Glosensor construct assessed as decrease in isoproterenol-induced cAMP accumulation incubated for 7 mins in presence of isoproterenol by Glosensor cAMP reagent/plate reader based luminescence assay; assay type: cell-based; settings: for pEC50: read-out: EC50
T2 sequence (P08172 whole entry): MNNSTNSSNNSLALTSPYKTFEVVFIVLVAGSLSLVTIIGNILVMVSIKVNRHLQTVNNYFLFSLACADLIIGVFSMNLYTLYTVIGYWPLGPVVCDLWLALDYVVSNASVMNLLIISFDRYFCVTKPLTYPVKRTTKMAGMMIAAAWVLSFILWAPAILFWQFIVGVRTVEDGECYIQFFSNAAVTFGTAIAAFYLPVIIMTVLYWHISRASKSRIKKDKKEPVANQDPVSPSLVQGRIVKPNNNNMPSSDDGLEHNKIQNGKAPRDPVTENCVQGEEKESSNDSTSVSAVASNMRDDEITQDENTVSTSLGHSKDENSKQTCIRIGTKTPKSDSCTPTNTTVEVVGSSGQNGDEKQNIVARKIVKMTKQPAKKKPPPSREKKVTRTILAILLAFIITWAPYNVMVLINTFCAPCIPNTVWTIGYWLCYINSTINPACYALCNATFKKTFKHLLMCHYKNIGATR

[4] = molecular target: T3, Muscarinic acetylcholine receptor M4 (Homo sapiens) (UniProt P08173); assay: Agonist activity at human Muscarinic acetylcholine receptor M4 expressed in HEK cells co-expressing Glosensor construct assessed as decrease in isoproterenol-induced cAMP accumulation at 10 uM to 0.3 nM incubated for 2 hrs in presence of isoproterenol and measured after 7 mins by Glosensor cAMP reagent/plate reader based luminescence assay relative to acetylcholine; assay type: functional, cell-based
T3 sequence (whole entry): T1 sequence (P08173 whole entry)

[5] = molecular target: T2, Muscarinic acetylcholine receptor M2; assay: as §2, with “accumulation at 10 uM to 0.3 nM” for “accumulation”, “assay relative to acetylcholine” for “assay”; assay type: cell-based
mouse BCRP = assay: Efflux ratio of permeability across basolateral to apical over apical to basolateral in Doxycycline induced dog MDCK cells transfected with mouse BCRP; assay type: ADME, cell-based, Canis lupus familiaris
MDR1 = assay: Efflux ratio of permeability across basolateral to apical over apical to basolateral in dog MDCK cells transfected with MDR1 gene; assay type: ADME, cell-based, Canis lupus familiaris
[6] = molecular target: T3, Muscarinic acetylcholine receptor M4 (Homo sapiens); assay: as §1, with “accumulation at 10 uM to 0.3 nM” for “accumulation”, “assay relative to acetylcholine” for “assay”; assay type: functional, cell-based

Structure (SMILES): COc1cccnc1C1CCN(C2CCCN(c3ncccn3)CC2)CC1 (stereo not drawn)
pEC50 [1]: < 5.00

Structure (SMILES): CCOC(=O)N1CCC2(CC(N3C[C@@H]4[C@H](C3)[C@@H]4c3nccn3-c3ccccc3)C2)C1 (stereo partly drawn)
pEC50 [2]: 8.52
pEC50 [3]: 5.29
Emax [4]: 99%
Emax at 7 min [5]: 100%

Structure (SMILES): O=C1CCCN1CC#CCN1CCCC1 [OXOTREMORINE]
pEC50 [1]: 8.05
Emax [4]: 94.4%
Emax [6]: 90.7%

Structure (SMILES): CCCC(=O)N1CCCC(N2CCC(c3ncccc3OC)CC2)CC1 (stereo not drawn)
pEC50 [2]: < 5.05

Structure (SMILES): COc1cccnc1C1CCN(C2CCCN(C(=O)OC(C)C)CC2)CC1 (stereo not drawn)
pEC50 [2]: < 5.03

Structure (SMILES): COc1cccnc1C1CCN(C2CCCN(C(=O)OCC(C)C)CC2)CC1 (stereo not drawn)
pEC50 [2]: < 5.00

Structure (SMILES): CCOC(=O)N1CCC(CN2CCC(c3ncccc3OC)CC2)CC1
pEC50 [2]: 7.64
EC50 [3]: Not Active
Emax [4]: 82%

Structure (SMILES): COc1cccnc1C1CCN(C2CCCN(c3cccnn3)CC2)CC1 (stereo not drawn)
pEC50 [1]: < 5.00

Structure (SMILES): COc1cccnc1C1CCN(C2CCCN(c3ccncc3)CC2)CC1 (stereo not drawn)
pEC50 [2]: < 5.00
pEC50 [1]: < 5.00

Structure (SMILES): COc1cccnc1C1CCN(C2CCCN(c3cncnc3)CC2)CC1 (stereo not drawn)
pEC50 [1]: < 5.00

Structure (SMILES): CCCCCCOc1nsnc1C1=CCCN(C)C1
Emax [6]: 100%

Structure (SMILES): CCNC(=O)N1CCCC(N2CCC(c3ncccc3OC)CC2)CC1 (stereo not drawn)
pEC50 [2]: < 5.22

Structure (SMILES): COc1cccnc1C1CCN(C2CCCN(c3nncs3)CC2)CC1 (stereo not drawn)
pEC50 [2]: < 5.00
pEC50 [1]: < 5.00

Structure (SMILES): COc1cccnc1C1CCN(C2CCCN(c3ccccn3)CC2)CC1 (stereo not drawn)
pEC50 [1]: < 5.00

Structure (SMILES): COc1cccnc1C1CCN(C2CCCN(c3nccs3)CC2)CC1 (stereo not drawn)
pEC50 [2]: < 5.00
pEC50 [1]: < 5.00

Next, values leading:

pEC50 [2]: 5.45
pEC50 [1]: 5.47
Emax [4]: 120%
Structure (SMILES): COc1cccnc1C1CCN(C2CCCN(c3nccnc3C)CC2)CC1 (stereo not drawn)

efflux ratio (mouse BCRP): 1.62
pEC50 [2]: 6.53
pEC50 [3]: < 5.05
efflux ratio (MDR1): 3.89
Emax [4]: 78%
Emax at 7 min [5]: 102%
Structure (SMILES): COc1cccnc1C1CCN(CC2CCN(c3cnccn3)CC2)CC1

pEC50 [2]: < 5.38
Emax [4]: 51%
Structure (SMILES): COc1cccnc1C1CCN(C2CCCN(c3cnc(C)cn3)CC2)CC1 (stereo not drawn)

pEC50 [2]: 6.64
pEC50 [3]: < 5.13
Emax [4]: 100%
Emax at 7 min [5]: 100%
Structure (SMILES): COc1cccnc1C1CCN(C2CC3(CCN(c4cnccn4)C3)C2)CC1 (stereo not drawn)

pEC50 [2]: 7.80
pEC50 [1]: 7.60
pEC50 [3]: 6.60
Emax [4]: 96.8%
Emax [6]: 95.9%
Emax at 7 min [5]: 104%
Structure (SMILES): COc1cccnc1C1CCN(C2CCCN(c3cnccn3)CC2)CC1 (stereo not drawn)

pEC50 [2]: 6.33
Emax [4]: 107%
Structure (SMILES): COc1cccnc1C1CCN(C2CCCN(c3nsnc3C)CC2)CC1 (stereo not drawn)

pEC50 [2]: 8.05
pEC50 [3]: < 5.00
Emax [4]: 90%
Structure (SMILES): CCOC(=O)N1CCC2(CC(N3CCC(c4ncccc4OC)CC3)C2)C1 (stereo not drawn)

pEC50 [2]: 5.01
pEC50 [1]: < 5.00
Emax [4]: 100%
Structure (SMILES): COc1cccnc1C1CCN(C2CCCN(c3cncc(C)n3)CC2)CC1 (stereo not drawn)

pEC50 [2]: 7.70
Emax [4]: 109%
Structure (SMILES): COc1cccnc1C1CCN(C2CCCN(c3cnsn3)CC2)CC1 (stereo not drawn)

pEC50 [2]: 5.96
Emax [4]: 101%
Structure (SMILES): COc1cccnc1C1CCN(C2CCCN(c3ncns3)CC2)CC1 (stereo not drawn)

pEC50 [2]: 5.60
Emax [4]: 94%
Structure (SMILES): COc1cccnc1C1CCN(C2CCCN(c3nsnc3OC)CC2)CC1 (stereo not drawn)

pEC50 [2]: < 5.00
Structure (SMILES): CCNS(=O)(=O)N1CCCC(N2CCC(c3ncccc3OC)CC2)CC1 (stereo not drawn)

pEC50 [2]: < 5.56
pEC50 [1]: < 5.00
Structure (SMILES): COc1cccnc1C1CCN(C2CCCN(c3nc(C)cs3)CC2)CC1 (stereo not drawn)

pEC50 [1]: 5.00
Emax [6]: 80%
Structure (SMILES): COc1cccnc1C1CCN(C2CCCN(c3cccnc3)CC2)CC1 (stereo not drawn)

pEC50 [2]: 7.96
pEC50 [3]: 5.60
Emax [4]: 99 to 99.1%
Emax at 7 min [5]: 83%
Structure (SMILES): CCOC(=O)N1CCCC(N2CCC(c3ncccc3OC)CC2)CC1 (stereo not drawn)

pEC50 [2]: 8.15
pEC50 [3]: 6.38
Emax [4]: 83.8%
Emax at 7 min [5]: 79.4%
Structure (SMILES): c1ccc(-n2ccnc2[C@@H]2[C@@H]3CN(C4CC5(CCN(c6cnccn6)C5)C4)C[C@@H]32)cc1 (stereo partly drawn)
